Tested on: Bcl-2/Bax
Experiment: Bcl-2/Bax expression ratio by real-time PCR in 3T3-L1 and UCP2-transfected 3T3-L1 adipocytes
Assay type: cell-based
Conditions: 24 h, P<0.01
Description: 3T3-L1 preadipocytes were incubated at a density of 8000 cells/cm2 (10 cm2 dish) and grown in Dulbecco's modified Eagle's medium (DMEM) containing 10% FBS and antibiotics (adipocyte medium) at 37° C. in 5% CO2 in air. Confluent preadipocytes were induced to differentiate with a standard differentiation medium consisting of DMEM-F10 (1:1, vol/vol) medium supplemented with 1% FBS, 1 μM dexamethasone, IBMX (0.5 mM), and antibiotics (1% penicillin-streptomycin). Preadipocytes were maintained in this differentiation medium for 3 days and subsequently cultured in adipocyte medium. Cultures were re-fed every 2-3 days to allow 90% cells to reach full differentiation before they were chemically treated. Chemicals were freshly diluted in adipocyte medium before treatment. Cells were washed with fresh adipocyte medium, re-fed with medium containing the different treatments, and incubated at 37° C. in 5% CO2 in air before analysis. Cell viability was measured via trypan blue exclusion.
UCP2 full-length cDNAs were amplified by […] using mRNAs isolated from mouse white adipose tissues. The PCR primers for this amplification are shown as follows: UCP2 forward, 5′-[…]-3′, reverse, 5′-[…]-3′. The PCR products were then subcloned into pcDNA4/His expression vectors. The linearized constructs were transfected into 3T3-L1 preadipocytes using lipofectamine plus standard protocol (Invitrogen, Carlsbad, Calif.). After 48 h of transfection, cells were split and cultured in selective medium containing 400 ug/ml zeocin for the selection of resistant colonies. […]
Adipocyte caspase-1, caspase-3, Bcl-2, and Bax mRNA were quantitatively measured using a Smart Cycler Real Time PCR System (Cepheid, Sunnyvale, Calif.) with a TaqMan 1000 Core Reagent Kit (Applied Biosystems, Branchburg, N.J.). […] Reactions of quantitative RT-PCR for standards and unknown samples were Cepheid, Sunnyvale, Calif.) and TaqMan Real Time PCR Core Kit. The mRNA quantitation for each sample was further normalized using the corresponding 18 s quantitation, with a forward primer, 5′-[…]-3′, and a reverse primer, 5′-[…]-3′.

## C=C1/C(=C\C=C2/CCC[C@]3(C)[C@@H]([C@H](C)CCCC(C)(C)O)CC[C@@H]23)C[C@@H](O)C[C@@H]1O [1α,25-(OH)2-D3, 1α,25-dihydroxyvitamin D3]
High dose 100 nM, control and UCP2-transfected 3T3-L1 cells
  Bcl-2/Bax expression ratio: significant decrease
Lower levels (0.1-10 nM)
  Bcl-2/Bax expression ratio: dose-dependent increase

From patent US20070286886A1, “Materials And Methods For Inducing Apoptosis In Adipocytes” (University of Tennessee Research Foundation, priority 2004, published 2007)
